Test results published in BigSolDB 2.1.

COc1cc(C=O)ccc1O
solubility (mole fraction)
Conditions | 293.15 K | 298.15 K | 303.15 K | 308.15 K | 313.15 K | 318.15 K | 323.15 K
in ethanol | 0.0713 | 0.0779 | 0.0841 | 0.0926 | 0.105 | 0.118 | 0.141
in water | 0.00116 | 0.00141 | 0.00179 | 0.00202 | 0.00234 | 0.00267 | 0.00298
